Laboratory results published in patent US9440990B2, “1-arylcarbonyl-4-oxy-piperidine compounds useful for the treatment of neurodegenerative diseases” (TAKEDA PHARMACEUTICAL COMPANY LIMITED, priority 2011, dated 2016).

Legend:
24-HC in the brain = experiment: Quantification test of 24-HC in mouse brain after repeated oral administration; format: in vivo; conditions: brain 24-HC; female C57BL/6N mice; 10 mg/kg orally once a day for 3 days; 16 hours after the third administration; relative to control group as 100%
Method: Animals used were 6-week-old female C57BL/6N mice (3 mice/group). A test compound was suspended in a 0.5% aqueous methylcellulose [133-14255 WAKO] solution (1 mg/mL). The body weight of the mice was measured, and the solution was forcibly administered orally and repeatedly once a day for 3 days. At 16 hours after the third administration, half of the brain was recovered, and the amount of 24-HC was measured.
The wet weight of the brain was measured, and the brain was homogenized with about 4-fold amount (0.5 mL) of saline. This solution was used as a brain extract. 24-HC in the brain extract was extracted with an acetonitrile solution (98% acetonitrile, 1.98% methanol, 0.02% formic acid), and quantified by HPLC. The average value of 24-HC amount was calculated and the results are shown in relative values with the control group as 100%.

[1] = tested on: APP/PS1 double transgenic mouse; experiment: Y-maze test using APP/PS1 double transgenic mouse; format: in vivo; conditions: 16 hours after the 13th administration
Method: Animals used were 3-month-old female APP/PS1 double transgenic mice (10-15 mice/group). A test compound was suspended in a 0.5% aqueous methylcellulose [133-14255 WAKO] solution (1 mg/mL). The body weight of the mice was measured, and the solution was forcibly administered orally and repeatedly once a day for 14 days. At 16 hours after the 13th administration, spontaneous alternation behavior in Y-maze test was evaluated. Using a particular arm of a Y-shaped test apparatus as the starting point, the frequency of moving to a different arm was counted for 5 min. The first two times of entry were excluded from the total number of entry. In addition, the mice that entered less than 10 times in total were excluded. Movement to an arm different from the arm into which the mouse entered last but one was considered an alternation behavior, and the ratio to the total number of moving was calculated as a spontaneous alternation behavior rate. As comparison subjects, a control group (test compound-non treatment group) and a control group in wild-type mice were used.

Compound	decrease rate (%) at 10 mg/kg (24-HC in the brain) [%]	Spontaneous alternation behavior rate (%) ([1]; 10 mg/kg orally once a day)	Spontaneous alternation behavior rate (%) ([1]; 30 mg/kg orally once a day)
O=C(c1ccccc1-c1ccncn1)N1CCC(O)(Cc2ccccc2)CC1 [Example 14, (4-benzyl-4-hydroxypiperidin-1-yl) (2-(pyrimidin-4-yl)phenyl)methanone]	67		
O=C(c1ccc(F)cc1-c1ccncc1)N1CCC(O)(Cc2ccccn2)CC1 [Example 30, (4-fluoro-2-(pyridin-4-yl)phenyl) (4-hydroxy-4-(pyridin-2-ylmethyl)piperidin-1-yl)methanone]	87		
O=C(c1cccnc1-c1ccncc1)N1CCC(O)(Cc2ccccc2)CC1 [Example 44, (4-benzyl-4-hydroxypiperidin-1-yl) (2,4′-bipyridin-3-yl)methanone]		71	71
O=C(c1cccnc1-c1ccncn1)N1CCC(O)(Cc2ccccc2)CC1 [Example 54, (4-benzyl-4-hydroxypiperidin-1-yl) (2-(pyrimidin-4-yl)pyridin-3-yl)methanone]	64		
Cc1nc(-c2ccncn2)c(C(=O)N2CCC(O)(Cc3ccc(F)cc3)CC2)s1 [Example 62, (4-(4-fluorobenzyl)-4-hydroxypiperidin-1-yl) (2-methyl-4-(pyrimidin-4-yl)-1,3-thiazol-5-yl)methanone]	71		
O=C(c1cccnc1-c1ccncc1)N1CCC(O)(Cc2ccc(F)cc2)CC1 [Example 67, 2,4′-bipyridin-3-yl (4-(4-fluorobenzyl)-4-hydroxypiperidin-1-yl)methanone]	43		
N#Cc1ccc(CC2(O)CCN(C(=O)c3cccnc3-c3ccncc3)CC2)cc1 [Example 70, 4-((1-(2,4′-bipyridin-3-ylcarbonyl)-4-hydroxypiperidin-4-yl)methyl)benzonitrile]	60		
O=C(c1cccnc1-c1ccncc1)N1CCC(O)(Cc2ccc(F)cc2F)CC1 [Example 87, 2,4′-bipyridin-3-yl (4-(2,4-difluorobenzyl)-4-hydroxypiperidin-1-yl)methanone]	37		
O=C(c1cccnc1-c1ccncn1)N1CCC(O)(Cc2ccc(F)cc2)CC1 [Example 92, (4-(4-fluorobenzyl)-4-hydroxypiperidin-1-yl) (2-(pyrimidin-4-yl)pyridin-3-yl)methanone]	60		
O=C(c1cccnc1-c1ccncn1)N1CCC(O)(Cc2ccc(F)cc2F)CC1 [Example 105, (4-(2,4-difluorobenzyl)-4-hydroxypiperidin-1-yl) (2-(pyrimidin-4-yl)pyridin-3-yl)methanone]	40		
